Test results reported in PMC10746280, “Bacterial efflux pump modulators prevent bacterial growth in macrophages and under broth conditions that mimic the host environment” (mBio, 2023).

What was measured:
RAW 264.7 macrophages = test: SAFIRE macrophage assay: host toxicity (adherent macrophage count, morphology); assay type: cell-based
Source text: (§1) In SAFIRE, we used MATLAB software to count the number of macrophages that remain adherent and retain the red fluorescence of MitoTracker, an indicator of voltage across the mitochondrial inner membrane. MATLAB then calculates the signal from bacteria (green fluorescent protein [GFP]) that overlaps with macrophages, as defined by MitoTracker, to estimate bacterial load. […] For example, we observed that the 6-trifluoropyrimidin-2-yl group on the right-hand side of EPM35 is apparently toxic to macrophages. Non-toxic analogs that reduced bacterial load by at least 60% at 5 µM and 25 µM in SAFIRE, as compared with DMSO, progressed and were evaluated in SAFIRE across eight or more concentrations, ranging from 0.001 µM to 50 µM (n = 2). […] Each of the top 13 analogs had at least an eightfold increase in potency and were not toxic for macrophages at 50 µM in the SAFIRE assay (Fig. 1C).
(§2) As previously described ([18]), RAW 264.7 macrophages (between passages 1 and 6) were grown in complete Dulbecco’s modified Eagle’s medium (DMEM) to approximately 70% to 90% confluence, scraped, washed, resuspended, diluted to 5 × 10^4 in 100 µL, and seeded in black, 96-well, glass-bottomed plates (Brooks Life Sciences catalog number MGB096-1-2-LG-L) at 37°C with 5% CO2. Twenty-four hours later, bacteria grown overnight in LB were diluted into 50 µL phosphate buffered saline (PBS) and added to a final concentration of 1 × 10^7 S. Typhimurium SL1344 (sifB::gfp) per milliliter ([78]) for an approximate multiplicity of infection of 30 bacteria per macrophage cell. Forty-five minutes after bacterial addition, gentamicin (Sigma catalog number G1264) was added to a final concentration of 40 µg/mL to inhibit the growth of remaining extracellular bacteria. Two hours after infection, gentamicin-containing medium was removed and replaced with 200 µL fresh DMEM with compound or DMSO (Sigma catalog number 276855) to the stated final concentrations. At 17.5 h after infection, PBS containing MitoTracker Red CMXRos (Life Technologies catalog number M7512), a vital dye for mitochondrial electric potential, was added to a final concentration of 100 nM. At 18 h after infection, 16% paraformaldehyde was added to a final concentration of 4% and incubated at room temperature for 15 min. Cells were washed twice with PBS and stained for 20 min with 1 µM 4′,6-diamidino-2-phenylindole (DAPI), a vital dye for double-stranded DNA, and stored in 90% glycerol in PBS until imaging. Samples were imaged in six fields of view per well using a semiautomated Yokogawa CellVoyager CV1000 confocal scanner system with a 20×, 0.75-numerical aperture (NA) objective. A MATLAB algorithm calculated bacterial accumulation (GFP fluorescence) within macrophages, as defined by DAPI and MitoTracker Red. GFP^+ macrophage area was defined as the number of GFP-positive pixels per macrophage divided by the total number of pixels per macrophage, averaged across all macrophages in the field ([34]).

[1] = system: S. Typhimurium SL1344 (sifB::gfp) in RAW 264.7 macrophages; test: SAFIRE macrophage assay: intracellular bacterial load (GFP signal within macrophages); assay type: cell-based, Salmonella enterica serotype Typhimurium
Source text: as §1, §2

[2] = 5 uM, 'Toxic' given instead of a score
[3] = 25 uM, 'Toxic' given instead of a score
[4] = 5 uM compound, n=1, DMSO solvent control = 100
[5] = 25 uM compound, n=1, DMSO solvent control = 100
[6] = 5 uM compound, n=1, DMSO solvent control = 98, rifampicin 2 μg/mL = 65
[7] = 25 uM compound, n=1, DMSO solvent control = 98, rifampicin 2 μg/mL = 65

SMILES	5 uM Avg Cell # Score (RAW 264.7 macrophages; 5 uM)	25 uM Avg Cell # Score (RAW 264.7 macrophages; 25 uM)	5 uM Avg Antibacterial Score [1, 2]	25 uM Avg Antibacterial Score [1, 3]	5 uM Avg Cell # Score (RAW 264.7 macrophages; [4])	25 uM Avg Cell # Score (RAW 264.7 macrophages; [5])	5 uM Avg Antibacterial Score [1, 6]	25 uM Avg Antibacterial Score [1, 7]
N#Cc1ccccc1OCC(O)CN1CCC(Nc2nccc(C(F)(F)F)n2)C1 (stereo not shown) [CU093]	93	79	102	58				
OC(COc1ccc(F)c(F)c1)CN1CCC(Nc2ncccn2)CC1 (stereo not shown) [CU170]	100	107	109	107				
NC(=O)C1CCN(CC(O)COc2ccc(Cl)c(Cl)c2)C1 (stereo not shown) [CU065]	80	87	106	90				
OC(CNC1CCNCC1)COc1ccc(Cl)c(Cl)c1 (stereo not shown) [CU174]	98	97	40	18				
COc1cccc(OCC(O)CN2CCC(Nc3nccc(C(F)(F)F)n3)CC2)c1 (stereo not shown) [CU081]	94	93	102	17				
N[C@H]1CC[C@@H](NCC(O)COc2cc(Cl)cc(Cl)c2)CC1 (stereo partly shown) [CU216]	102	22	52	Toxic				
CC1(N)CCN(CC(O)COc2ccc(Cl)c(Cl)c2)CC1 (stereo not shown) [CU235]					125	84	20	14
O[C@@H](COc1ccc(Cl)c(Cl)c1)CN1CCCCC1 [CU253]					116	120	96	57
O=C1OC(COc2ccc(Cl)c(Cl)c2)CN1c1ccc(N2CCOCC2)cc1 (stereo not shown) [CU195]	114	82	107	103				
OC(COc1ccc(Cl)c(Cl)c1)CN1CCC(F)C1 (stereo not shown) [CU125]	81	86	102	73				
OC(COc1ccc(Cl)c(Cl)c1)CN1CCN(C2CCOC2)CC1 (stereo not shown) [CU180]	96	100	106	82				
CN(CC(O)COc1ccc(Cl)c(Cl)c1)C1CCOC1 (stereo not shown) [CU122]	81	74	102	81				
OC(COc1ccc(Cl)c(Cl)c1)CN1CCCC(N2CCOCC2)C1 (stereo not shown) [CU030]	57	126	102	45				
NC1CCN(CC(O)COc2cccc(Cl)c2)CC1 (stereo not shown) [CU188]	110	111	33	25				
CCOC(=O)c1cccc(OCC(O)CN2CCC(Nc3nccc(C(F)(F)F)n3)C2)c1 (stereo not shown) [CU090]	91	48	70	Toxic				
OC(COc1ccc(F)cc1F)CN1CCC(Nc2ncccn2)CC1 (stereo not shown) [CU048]	85	159	105	95				
OC(COc1ccc(Cl)c(Cl)c1)CN1CCC(Nc2nccs2)CC1 (stereo not shown) [CU051]	123	105	58	45				
N[C@H]1CCN(CC(O)COc2ccc(Cl)c(Cl)c2)C1 (stereo partly shown) [CU194]	100	103	18	12				
OC(COc1ccc(Cl)c(Cl)c1)CN1CCN(C2CC2)CC1 (stereo not shown) [CU182]	102	101	105	73				
